The values that follow come from patent publication US20220144838A1, “Compounds as Inhibitors of Macrophage Migration Inhibitory Factor” (NANJING IMMUNOPHAGE BIOTECH CO., LTD., priority 2019, published 2022).

This assay has as its target T1, MIF (Homo sapiens, UniProt P14174).
T1 sequence (P14174 2-115 limits assumed): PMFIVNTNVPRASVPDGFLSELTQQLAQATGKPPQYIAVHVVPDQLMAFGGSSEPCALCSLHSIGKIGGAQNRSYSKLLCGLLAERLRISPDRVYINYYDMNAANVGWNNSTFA
Put plainly: MIF tautomerase assay using pHPP as substrate. The settings on record: inhibition of the MIF enzyme in vitro; mean of multiple test results; read-out: Tautomerase Inhibition pIC50 (converted). In kind it is biochemical. In outline: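 Mean pIC50 derived from initial rates (absorbance progress-curve slopes) of MIF-catalyzed ketonic-to-enolic pHPP conversion, read as enol–borate complex. Reactions contained 1.5 mM substrate and 3 nM enzyme (final), 200 mM boric acid stock buffer, BSA and CHAPS, pH 6.0.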
`Oc1ccc(N2CCN(c3nc(-n4ncc5ccccc54)c4ncn(Cc5ccccn5)c4n3)CC2)cc1` [Example 116, 4-(4-(6-(1H-indazol-1-yl)-9-(pyridin-2-ylmethyl)-9H-purin-2-yl)piperazin-1-yl)phenol]: the IC50 is 100 to 977 nM.

Take `CCC(CO)N(C)c1nc(N2CCN(c3ccc(O)cc3)CC2)nc2c1ncn2-c1cccnc1` (centres unmarked) [Example 169, 4-(4-(6-((1-hydroxybutan-2-yl)(methyl)amino)-9-(pyridin-3-yl)-9H-purin-2-yl)piperazin-1-yl)phenol]: the IC50 is 10 to 97.7 nM.

For the molecule `Cc1nc(N2CCN(c3ccc(O)cc3)CC2)nc2c1ncn2-c1cccnc1O` [Example 60, 3-(2-(4-(4-hydroxyphenyl)piperazin-1-yl)-6-methyl-9H-purin-9-yl)pyridin-2-ol], the IC50 is 100 to 977 nM.

`O=C(O)CCCn1cnc2c(-n3ncc4ccccc43)nc(N3CCN(c4ccc(O)cc4)CC3)nc21` [Example 146, 4-(2-(4-(4-hydroxyphenyl)piperazin-1-yl)-6-(1H-indazol-1-yl)-9H-purin-9-yl)butanoic acid]: the IC50 is 10 to 97.7 nM.

For the molecule `O=C(O)Cn1cnc2c(-n3ncc4ccc(C(=O)O)cc43)nc(N3CCN(c4ccc(O)cc4)CC3)nc21` [Example 104, 1-(9-(carboxymethyl)-2-(4-(4-hydroxyphenyl)piperazin-1-yl)-9H-purin-6-yl)-1H-indazole-6-carboxylic acid], the IC50 is 1000 to 9770 nM.

`N#Cc1ccc(-n2cnc3c(N)nc(N4CCN(c5ccc(O)cc5)CC4)nc32)cn1` [Example 86, 5-(6-amino-2-(4-(4-hydroxyphenyl)piperazin-1-yl)-9H-purin-9-yl)picolinonitrile]: the IC50 was 100 to 977 nM.

Consider `O=C(O)Cn1cnc2c(-n3nc(-c4nnn[nH]4)c4ccccc43)nc(N3CCN(c4ccc(O)cc4)CC3)nc21` [Example 135], for which the IC50 is 10 to 97.7 nM.

On to `Nc1nc(N2CCN(c3ccc(O)cc3)CC2)nc2c1ncn2-c1cccc(F)c1` [Example 72, 4-(4-(6-amino-9-(3-fluorophenyl)-9H-purin-2-yl)piperazin-1-yl)phenol], for which the IC50 was 1000 to 9770 nM.

In the case of `C[C@H](Nc1nc(N2CCN(c3ccc(O)cc3)CC2)nc2c1ncn2CCO)c1ccccc1` [Example 4, (S)-4-(4-(9-(2-hydroxyethyl)-6-((1-phenylethyl)amino)-9H-purin-2-yl)piperazin-1-yl)phenol], the IC50 was over 10000 nM.

With `OCCn1cnc2c(-n3ncc4ccccc43)nc(N3CC=C(c4ccc(O)cc4)CC3)nc21` [Example 159, 4-(1-(9-(2-hydroxyethyl)-6-(1H-indazol-1-yl)-9H-purin-2-yl)-1,2,3,6-tetrahydropyridin-4-yl)phenol], the IC50 is over 10000 nM.

For the molecule `O=C(O)Cn1cnc2c(-n3ncc4ccc(CO)cc43)nc(N3CCN(c4ccc(O)cc4)CC3)nc21` [Example 105, 2-(6-(6-(hydroxymethyl)-1H-indazol-1-yl)-2-(4-(4-hydroxyphenyl)piperazin-1-yl)-9H-purin-9-yl)acetic acid], the IC50 was 100 to 977 nM.

Turning to `O=C(O)Cn1cnc2c(-n3nnc4cc(Cl)ccc43)nc(N3CCN(c4ccc(O)cc4)CC3)nc21` [Example 19, 2-(6-(5-chloro-1H-benzo[d][1,2,3]triazol-1-yl)-2-(4-(4-hydroxyphenyl)piperazin-1-yl)-9H-purin-9-yl)acetic acid], the IC50 is 1000 to 9770 nM.

With `CC(C)(C(=O)O)n1cnc2c(-n3ncc4ccccc43)nc(N3CCN(c4ccc(O)cc4)CC3)nc21` [Example 128, 2-(2-(4-(4-hydroxyphenyl)piperazin-1-yl)-6-(1H-indazol-1-yl)-9H-purin-9-yl)-2-methylpropanoic acid], the IC50 is 10 to 97.7 nM.

On to `Nc1nc(N2CCN(c3ccc(CO)cn3)CC2)nc2c1ncn2-c1ccncc1` [Example 196, (6-(4-(6-amino-9-(pyridin-4-yl)-9H-purin-2-yl)piperazin-1-yl)pyridin-3-yl)methanol], for which the IC50 was over 10000 nM.

With `Cc1nc(N2CCN(c3ccc(O)cc3)CC2)nc2c1ncn2CCO` [Example 111, 4-(4-(9-(2-hydroxyethyl)-6-methyl-9H-purin-2-yl)piperazin-1-yl)phenol], the IC50 was 1000 to 9770 nM.

Consider `O=C(O)Cn1cnc2c(-c3cccc4[nH]ncc34)nc(N3CCN(c4ccc(O)cc4)CC3)nc21` [Example 34, 2-(2-(4-(4-hydroxyphenyl)piperazin-1-yl)-6-(1H-indazol-4-yl)-9H-purin-9-yl)acetic acid], for which the IC50 was 1000 to 9770 nM.

`O=C(O)Cn1cnc2c(-n3ncc4c(CO)cccc43)nc(N3CCN(c4ccc(O)cc4)CC3)nc21` [Example 16, 2-(6-(4-(hydroxymethyl)-1H-indazol-1-yl)-2-(4-(4-hydroxyphenyl)piperazin-1-yl)-9H-purin-9-yl)acetic acid]: the IC50 is 10 to 97.7 nM.

Turning to `Nc1nc(N2CCC(O)(c3ccc(F)cc3)CC2)nc2c1ncn2-c1cccnc1` [Example 209, 1-(6-amino-9-(pyridin-3-yl)-9H-purin-2-yl)-4-(4-fluorophenyl)piperidin-4-ol], the IC50 was 1000 to 9770 nM.

For `O=C(O)Cn1cnc2c(-n3ncc4ccccc43)nc(N3CC(O)(c4ccccc4)C3)nc21` [Example 221, 2-(2-(3-hydroxy-3-phenylazetidin-1-yl)-6-(1H-indazol-1-yl)-9H-purin-9-yl)acetic acid], the IC50 is 100 to 977 nM.

On to `CCCS(=O)(=O)NC(=O)Cn1cnc2c(-n3ncc4ccccc43)nc(N3CCN(c4ccc(O)cc4)CC3)nc21` [Example 56, 2-(2-(4-(4-hydroxyphenyl)piperazin-1-yl)-6-(1H-indazol-1-yl)-9H-purin-9-yl)-N-(propylsulfonyl)acetamide], for which the IC50 was 100 to 977 nM.

Regarding `CN(CC(=O)O)c1nc(N2CCN(c3ccc(O)cc3)CC2)nc2c1ncn2-c1ccncc1` [Example 166, 3N-(2-(4-(4-hydroxyphenyl)piperazin-1-yl)-9-(pyridin-4-yl)-9H-purin-6-yl)-N-methylglycine], the IC50 is 10 to 97.7 nM.

Turning to `N#Cc1ccc(-n2cnc3c(N)nc(N4CCN(c5ccc(O)cc5)CC4)nc32)cc1` [Example 74, 4-(6-amino-2-(4-(4-hydroxyphenyl)piperazin-1-yl)-9H-purin-9-yl)benzonitrile], the IC50 was 100 to 977 nM.

As for `O=C(O)C1CCN(c2nc(N3CCN(c4cccnc4)CC3)nc3c2ncn3-c2ccncc2)C1` (centres unmarked) [Example 181, 1-(2-(4-(pyridin-3-yl)piperazin-1-yl)-9-(pyridin-4-yl)-9H-purin-6-yl)pyrrolidine-3-carboxylic acid], the IC50 is over 10000 nM.

With `O=C(O)CCn1cnc2c(N3CCc4ccccc43)nc(N3CCN(c4ccc(O)cc4)CC3)nc21` [Example 8, 3-(2-(4-(4-hydroxyphenyl)piperazin-1-yl)-6-(indolin-1-yl)-9H-purin-9-yl)propanoic acid], the IC50 was 100 to 977 nM.

In the case of `Oc1ccc(N2CCN(c3nc(-n4ncc5ccccc54)c4ncn(CCc5nnn[nH]5)c4n3)CC2)cc1` [Example 117, 4-(4-(9-(2-(1H-tetrazol-5-yl)ethyl)-6-(1H-indazol-1-yl)-9H-purin-2-yl)piperazin-1-yl)phenol], the IC50 was 100 to 977 nM.

As for `OCCn1cnc2c(-n3ncc4ccccc43)nc(N3CCN(c4ccc(CO)cn4)CC3)nc21` [Example 154, 2-(2-(4-(5-(hydroxymethyl)pyridin-2-yl)piperazin-1-yl)-6-(1H-indazol-1-yl)-9H-purin-9-yl)ethan-1-ol], the IC50 was over 10000 nM.
